{"source": "patent US6387388B1", "about": "“Pesticidal formulation” (Merck & Co., Inc., priority 1995, dated 2002)", "key": {"[1]": {"system": "tomato fruitworm (Helicoverpa zea)", "test": "Field efficacy study, weekly foliar sprays on tomato", "type": "in vivo", "description": "‘Roma’ tomato transplants were planted in the field on June 10. Each plot was one row (5 ft centers) by 20 feet (=0.0022957 acre). Plots were separated within rows by at least 6 feet of unplanted ground and across rows by 24 feet. A single row of sweet corn (‘Silver Queen’) was planted mid-way between rows. Weeds are allowed to grow in the ground between the tomato and sweet corn rows, but were kept mowed. Weeds were controlled within tomato rows by a single application of Sencor 75 DF applied as a directed spray at the rate of 0.5 lb a.i./acre on June 20. Foliar applications of Dithane M45 at 1.5 lb a.i./acre were made every 5 days beginning July 1 and continuing through harvest for control of foliar diseases. In addition, calcium nitrate at 4 lb/acre was applied on July 10, 17, 24 and 31 for control of blossom-end rot. All insecticide treatments were applied as foliar sprays on July 23, 30, August 6, and 13. Applications were made using a CO2-powered, backpack sprayer calibrated to deliver 55 gallons of spray per acre at 42 psi. […]\nThe experimental treatments were replicated 4 times in a randomized complete block experimental design. The incidence of fruitworm damage to the fruit was determined in each plot on August 11, when the first fruit reached market maturity, and again on August 16. […]"}, "[2]": {"conditions": "soluble in 1 liter of water; cited from earlier work"}, "[3]": {"system": "eye of a rabbit", "test": "Neat emamectin benzoate, acute ocular irritation study in rabbits", "type": "in vivo, albino rabbits (New Zealand white)", "method": "Three male and three female albino rabbits (New Zealand white) 25 to 26 weeks of age and weighing 3.23 to 3.66 kg was used in this study. The test compound was ground into a fine powder and a volume of 0.1 cc (approximately 28 mg) was placed in the conjunctival sac of the left eye of each rabbit. Immediately after administration, the eyelids of the treated eye were held together for one second to prevent loss of material and released. The right eye was used as an untreated control.\nOcular examinations were made recorded at 1, 24, 48 and 72 hours post-instillation in all rabbits and were scored by the Draize Method (J. Pharmacol. Exp. Therap. 82:377-390 (1944)). Because of severe ocular reactions, three rabbits were euthanized following the 72-hour reading. Scores were recorded for the three remaining rabbits once daily through 14 days post-instillation except on weekends."}}, "note": "Entries after “also recorded” stand apart in the source; their conditions may differ."}
{"compound": "CC1(C)[C@H](C(=O)O[C@H](C#N)c2cccc(Oc3ccccc3)c2)[C@@H]1/C=C(\\Cl)C(F)(F)F", "note": "(racemic) [lambda-cyhalothrin]", "values": [{"measurement": "overall mean percentage of damaged fruit", "setting": "[1]; foliar", "result": 1.0, "unit": "%"}]}
{"compound": "COP(=O)(NC(C)=O)SC", "note": "(stereo not drawn) [acephate]", "values": [{"measurement": "amount soluble in water", "setting": "[2]", "result": 650, "unit": "g"}]}
{"compound": "CC(C)[C@H](C(=O)O[C@H](C#N)c1cccc(Oc2ccccc2)c1)c1ccc(Cl)cc1", "note": "[esfenvalerate]", "values": [{"measurement": "overall mean percentage of damaged fruit", "setting": "[1]; tomato, Asana XL 0.66 EC at 0.036 lb active ingredient per acre, applied weekly, untreated control 18.5%", "result": 0.0, "unit": "%"}]}
{"compound": "benzoate salt of 4″-deoxy-4″-epi-methylamino avermectin B1a/B1b [emamectin benzoate]", "values": [{"measurement": "ocular irritation rating", "setting": "[3]; 0.1 cc (approximately 28 mg) fine powder in conjunctival sac, six rabbits, listed as neat emamectin benzoate", "result": "severely irritating; also recorded: severe, irreversible eye irritant"}, {"measurement": "ocular reactions in the three rabbits euthanized early, through 72 hours", "setting": "[3]; approximately 28 mg in conjunctival sac", "result": "chemosis became severe"}, {"measurement": "ocular reactions at one hour", "setting": "[3]; approximately 28 mg in conjunctival sac, six rabbits, listed as neat emamectin benzoate", "result": "the eyes of four rabbits had congestion of the iris; also recorded: corneal anesthesia and conjunctival irritation; also recorded: moderate redness, slight or moderate chemosis and severe colorless discharge"}, {"measurement": "ocular reactions at 24 hours", "setting": "[3]; approximately 28 mg in conjunctival sac, listed as neat emamectin benzoate", "result": "an additional rabbit had congestion of the iris; also recorded: very slight corneal opacity covering less than ¼ of the corneal surface; also recorded: corneal anesthesia was still present, redness was severe, chemosis was never more than moderate"}, {"measurement": "body weight loss", "setting": "[3]; rabbits euthanized early", "result": "less than 7%"}, {"measurement": "corneal anesthesia lasted through", "setting": "[3]; two of the three remaining rabbits", "result": 72, "unit": "h"}]}
